In PubChem BioAssay (NCI) one finds TGI and GI50 data, which are given here for 14 compounds.

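Interpolation was linear, between the two tested concentrations surrounding the appropriate level; five concentrations were tested over 48 hours in 96-well plates. The concentration for 50% growth inhibition is given as GI50. TGI denotes the concentration required for complete inhibition of growth.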 A value given as a limit tells only on which side of the number the result lay.

Among the test systems are HCT-116 colon; M14 melanoma; HT29 colon; KM12 colon; TK-10 renal; NCI-H226 lung; A549 NSCLC; SW-620 colon; SK-MEL-2 melanoma; LOX IMVI melanoma.
Assay in all cases: DTP human tumour cell line panel, 48 h

As for `C[C@@H](NC(C#N)c1ccco1)c1ccccc1` (stereo partly specified), the TGI in the assay with HCT-116 colon, with M14 melanoma, in the assay on HT29 colon, in the assay with KM12 colon, in the assay on TK-10 renal and in the assay with NCI-H226 lung was above 100 µM throughout. Also, the total growth inhibition concentration (TGI) in the assay with A549 NSCLC and in the assay on SW-620 colon was above 100 µM each time.

Turning to `CC(C)=CCN1c2ccccc2NC(=O)CC1C` (stereo unspecified), the TGI in the assay with M14 melanoma, in the assay on HT29 colon, in the assay on KM12 colon, in the assay on SK-MEL-2 melanoma, in the assay with TK-10 renal and in the assay on NCI-H226 lung was above 100 µM each time. Further, the total growth inhibition concentration (TGI) in the assay on A549 NSCLC, in the assay on LOX IMVI melanoma and in the assay on SW-620 colon was above 100 µM each time.

For `CCCCCOc1ccc(C=Nc2ccc(CCc3ccc(N=Cc4ccc(OCCCCC)cc4)cc3)cc2)cc1`, the concentration for total growth inhibition (TGI) in the assay with HCT-116 colon, in the assay with HT29 colon, with KM12 colon, in the assay with SK-MEL-2 melanoma, in the assay with NCI-H226 lung and in the assay on A549 NSCLC was above 100 µM throughout. Besides, the TGI in the assay with LOX IMVI melanoma and in the assay on SW-620 colon was above 100 µM each time.

`CCn1nc(C)c2c1C(=O)NCC(=O)N2`: the total growth inhibition concentration (TGI) in the assay on HCT-116 colon, in the assay on M14 melanoma, in the assay on HT29 colon, with KM12 colon, in the assay with TK-10 renal and with A549 NSCLC was above 100 µM in each case. Further, in the assay on SW-620 colon, the concentration for total growth inhibition (TGI) is above 100 µM.

Regarding `CNC(C)(C)Cc1ccc(Cl)cc1`, the TGI in the assay on HCT-116 colon, in the assay with M14 melanoma, with HT29 colon, with KM12 colon, in the assay on SK-MEL-2 melanoma and in the assay on TK-10 renal was above 100 µM throughout. The TGI in the assay with A549 NSCLC, in the assay with LOX IMVI melanoma and in the assay with SW-620 colon was above 100 µM throughout.

As to `CCCCN(CCCC)Cc1cc(Nc2ccnc3cc(Cl)ccc23)ccc1O`, the GI50 in the assay with HT29 colon is 0.491 µM; in the assay on KM12 colon, above 100 µM; in the assay with SK-MEL-2 melanoma, 45.1 µM; in the assay with TK-10 renal, 2.62 µM; with NCI-H226 lung, 11.1 µM; with A549 NSCLC, 19.8 µM. In addition, the GI50 with LOX IMVI melanoma was 2.81 µM. Also, the TGI with HT29 colon was above 100 µM; in the assay with KM12 colon, above 100 µM; in the assay on SK-MEL-2 melanoma it was above 100 µM; in the assay on TK-10 renal, 26.4 µM; with NCI-H226 lung, above 100 µM; in the assay with A549 NSCLC, above 100 µM. Moreover, the TGI with LOX IMVI melanoma is above 100 µM.

Regarding `O=C(/C=C(/C=C/c1ccc2[nH]ccc2c1)OB(F)F)/C=C/c1ccc2[nH]ccc2c1`, the GI50 is 1.47 µM in the assay on HT29 colon, 4.6 µM in the assay with SK-MEL-2 melanoma and 4.78 µM with TK-10 renal. Also, the TGI was above 100 µM in the assay on HT29 colon, 86.2 µM with SK-MEL-2 melanoma and above 100 µM with TK-10 renal.

On to `CCO/C(=N/S(=O)(=O)C(F)(F)F)N(C(C)C)C(C)C`, for which the concentration for total growth inhibition (TGI) with HCT-116 colon, with M14 melanoma, with HT29 colon, with KM12 colon, in the assay with SK-MEL-2 melanoma and with TK-10 renal was above 100 µM in each case. For the same compound, the TGI in the assay on A549 NSCLC, with LOX IMVI melanoma and in the assay with SW-620 colon was above 100 µM in each case.

On to `Nc1n(CC(=O)c2ccccc2)nc2sc(-c3ccccc3)n[n+]12`, for which the concentration for total growth inhibition (TGI) was above 100 µM in the assay with M14 melanoma; 51.3 µM with HT29 colon; 39.3 µM in the assay with KM12 colon; above 100 µM with SK-MEL-2 melanoma; above 100 µM in the assay on TK-10 renal; 52.2 µM in the assay with NCI-H226 lung. Moreover, the total growth inhibition concentration (TGI) is 90.6 µM in the assay on A549 NSCLC, above 100 µM in the assay on LOX IMVI melanoma and 36.6 µM with SW-620 colon.

With `CN1CCC(CNc2cc(C3(C(=O)Nc4cc(C(=O)Nc5ccc(Cl)c(C(F)(F)F)c5)ccc4F)CC3)ncn2)CC1`, the GI50 in the assay with HT29 colon is 1.73 µM; in the assay on KM12 colon it was 2.58 µM; with SK-MEL-2 melanoma it was 1.9 µM; with TK-10 renal, 3.89 µM; in the assay with NCI-H226 lung it was 13.6 µM; with A549 NSCLC it was 2.29 µM. The GI50 in the assay on SW-620 colon was 2.54 µM. The total growth inhibition concentration (TGI) in the assay with HT29 colon amounted to 5.09 µM; with KM12 colon it was 6.91 µM; in the assay on SK-MEL-2 melanoma, 4.02 µM; in the assay on TK-10 renal, 12.8 µM; with NCI-H226 lung it was 36.1 µM; in the assay on A549 NSCLC, 5.54 µM. This compound displayed a TGI in the assay on SW-620 colon of 5.32 µM.

As for `N=C1C(=N)c2ccccc2-c2ccccc21.[Cl-].[Ru+2].c1ccc(-c2ccccn2)nc1.c1ccc(-c2ccccn2)nc1`, the TGI with HCT-116 colon, with M14 melanoma, in the assay on HT29 colon, in the assay with KM12 colon, in the assay on SK-MEL-2 melanoma and with TK-10 renal was above 100 µM each time. For the same compound, the concentration for total growth inhibition (TGI) in the assay on A549 NSCLC, in the assay with LOX IMVI melanoma and in the assay on SW-620 colon was above 100 µM throughout.

Regarding `C=CCSC1=N/C(=C\c2ccc(Cl)cc2)C(=O)N1CC=C`, the concentration for total growth inhibition (TGI) in the assay on HCT-116 colon was above 100 µM; in the assay with M14 melanoma, above 100 µM; in the assay on HT29 colon, above 100 µM; in the assay on KM12 colon, 97.7 µM; in the assay with SK-MEL-2 melanoma, 76 µM; with TK-10 renal, above 100 µM. The TGI in the assay on A549 NSCLC, in the assay with LOX IMVI melanoma and in the assay on SW-620 colon was above 100 µM throughout.

As for `COc1cc(C2c3c(ccc4ccccc34)C(=O)C3CCC(=O)N32)cc(OC)c1OC` (stereo unspecified), the total growth inhibition concentration (TGI) with HCT-116 colon, with M14 melanoma, in the assay with HT29 colon, with KM12 colon, with SK-MEL-2 melanoma and in the assay with NCI-H226 lung was above 50 µM each time. Also, the TGI in the assay on A549 NSCLC and in the assay with SW-620 colon was above 50 µM each time.

On to `COC1CC(N)(c2ccccc2)C(O)C(C)O1` (stereo unspecified), for which the concentration for total growth inhibition (TGI) with HCT-116 colon, in the assay with M14 melanoma, in the assay with SK-MEL-2 melanoma, in the assay on NCI-H226 lung, in the assay on A549 NSCLC and in the assay with LOX IMVI melanoma was above 100 µM each time. Besides, in the assay with SW-620 colon, the TGI is above 100 µM.

The term TGI denotes the concentration at which net growth stops. A higher TGI goes with less potent growth arrest. In general, GI50 refers to the concentration giving 50% growth inhibition.
